# Source: ChEMBL document CHEMBL4004838, “Design and synthesis of novel phenyl -1, 4-beta-carboline-hybrid molecules as potential anticancer agents” (Eur J Med Chem, 2017)
# Activity calls are given as the source filed them. The calls are words filed in the database; no cut-off is given here.
# What was measured:
# [1] = species: Bos taurus; test: Binding affinity to calf thymus DNA assessed as induction of hyperchromic shift at 20 uM sonicated for 35 to 40 mins by UV-vis spectrophotometric analysis
# [2] = system: SR; test: Growth inhibition of human SR cells incubated for 48 hrs by sulforhodamine B assay; format: functional
# [3] = system: HCC 2998; test: Growth inhibition of human HCC2998 cells incubated for 48 hrs by sulforhodamine B assay; format: functional; details: HCC 2998, 48 h; for TGI: read-out: pTGI (converted)
# [4] = system: SK-MEL-2; test: Growth inhibition of human SK-MEL-2 cells incubated for 48 hrs by sulforhodamine B assay; format: functional; details: SK-MEL-2, 48 h
# [5] = system: PC-3; test: Growth inhibition of human PC3 cells incubated for 48 hrs by sulforhodamine B assay; format: functional; details: PC-3, 48 h
# [6] = system: SR; test: Growth inhibition of human SR cells assessed as cell growth at 0.01 uM incubated for 48 hrs by sulforhodamine B assay relative to control; format: functional; details: read-out: Activity
# [7] = system: M14; test: Growth inhibition of human M14 cells assessed as cell growth at 0.01 uM incubated for 48 hrs by sulforhodamine B assay relative to control; format: functional; details: M14, 48 h, read-out: Activity
# [8] = system: SK-MEL-5; test: Growth inhibition of human SK-MEL-5 cells assessed as cell growth at 0.01 uM incubated for 48 hrs by sulforhodamine B assay relative to control; format: functional; details: SK-MEL-5, 48 h, read-out: Activity
# [9] = system: IGROV-1; test: Growth inhibition of human IGROV1 cells assessed as cell growth at 0.01 uM incubated for 48 hrs by sulforhodamine B assay relative to control; format: functional; details: IGROV-1, 48 h, read-out: Activity
# [10] = system: MCF7; test: Growth inhibition of human MCF7 cells assessed as cell growth at 0.01 uM incubated for 48 hrs by sulforhodamine B assay relative to control; format: functional; details: MCF7, 48 h, read-out: Activity
# [11] = system: HOP-62; test: Growth inhibition of human HOP62 cells assessed as cell growth at 0.1 uM incubated for 48 hrs by sulforhodamine B assay relative to control; format: functional; details: HOP-62, 48 h, read-out: Activity
# [12] = system: NCI-H322M; test: Growth inhibition of human NCI-H322M cells assessed as cell growth at 0.1 uM incubated for 48 hrs by sulforhodamine B assay relative to control; format: functional; details: read-out: Activity
# [13] = system: NCI-H460; test: Growth inhibition of human NCI-H460 cells assessed as cell growth at 0.1 uM incubated for 48 hrs by sulforhodamine B assay relative to control; format: functional; details: NCI-H460, 48 h, read-out: Activity
# [14] = system: SF-295; test: Growth inhibition of human SF295 cells assessed as cell growth at 0.1 uM incubated for 48 hrs by sulforhodamine B assay relative to control; format: functional; details: SF-295, 48 h, read-out: Activity
# [15] = system: UACC-62; test: Growth inhibition of human UACC62 cells assessed as cell growth at 0.1 uM incubated for 48 hrs by sulforhodamine B assay relative to control; format: functional; details: UACC-62, 48 h, read-out: Activity
# [16] = system: NCI/ADR-RES; test: Growth inhibition of human NCI-ADR-RES cells assessed as cell growth at 0.1 uM incubated for 48 hrs by sulforhodamine B assay relative to control; format: functional; details: read-out: Activity
# [17] = system: CAKI-1; test: Growth inhibition of human Caki1 cells assessed as cell growth at 0.1 uM incubated for 48 hrs by sulforhodamine B assay relative to control; format: functional; details: CAKI-1, 48 h, read-out: Activity
# [18] = system: RXF 393; test: Growth inhibition of human RXF393 cells assessed as cell growth at 0.1 uM incubated for 48 hrs by sulforhodamine B assay relative to control; format: functional; details: RXF 393, 48 h, read-out: Activity
# [19] = system: DU-145; test: Growth inhibition of human DU145 cells assessed as cell growth at 0.1 uM incubated for 48 hrs by sulforhodamine B assay relative to control; format: functional; details: DU-145, 48 h, read-out: Activity
# [20] = system: COLO 205; test: Growth inhibition of human COLO205 cells assessed as cell growth at 1 uM incubated for 48 hrs by sulforhodamine B assay relative to control; format: functional; details: COLO 205, 48 h, read-out: Activity
# [21] = system: HCT-116; test: Growth inhibition of human HCT116 cells assessed as cell growth at 1 uM incubated for 48 hrs by sulforhodamine B assay relative to control; format: functional; details: HCT-116, 48 h, read-out: Activity
# [22] = system: U-251; test: Growth inhibition of human U251 cells assessed as cell growth at 1 uM incubated for 48 hrs by sulforhodamine B assay relative to control; format: functional; details: U-251, 48 h, read-out: Activity
# [23] = system: CAKI-1; test: Growth inhibition of human Caki1 cells assessed as cell growth at 1 uM incubated for 48 hrs by sulforhodamine B assay relative to control; format: functional; details: CAKI-1, 48 h, read-out: Activity
# [24] = system: T47D; test: Growth inhibition of human T47D cells assessed as cell growth at 1 uM incubated for 48 hrs by sulforhodamine B assay relative to control; format: functional; details: read-out: Activity
# [25] = system: NCI-H226; test: Growth inhibition of human NCI-H226 cells assessed as cell growth at 100 uM incubated for 48 hrs by sulforhodamine B assay relative to control; format: functional; details: NCI-H226, 48 h, read-out: Activity
# [26] = system: HT-29; test: Growth inhibition of human HT-29 cells assessed as cell growth at 100 uM incubated for 48 hrs by sulforhodamine B assay relative to control; format: functional; details: HT-29, 48 h, read-out: Activity
# [27] = system: SF-268; test: Growth inhibition of human SF268 cells assessed as cell growth at 100 uM incubated for 48 hrs by sulforhodamine B assay relative to control; format: functional; details: SF-268, 48 h, read-out: Activity
# [28] = system: U-251; test: Growth inhibition of human U251 cells assessed as cell growth at 100 uM incubated for 48 hrs by sulforhodamine B assay relative to control; format: functional; details: U-251, 48 h, read-out: Activity
# [29] = system: LOX IMVI; test: Growth inhibition of human LOXIMVI cells assessed as cell growth at 100 uM incubated for 48 hrs by sulforhodamine B assay relative to control; format: functional; details: read-out: Activity
# [30] = system: UACC-257; test: Growth inhibition of human UACC257 cells assessed as cell growth at 100 uM incubated for 48 hrs by sulforhodamine B assay relative to control; format: functional; details: UACC-257, 48 h, read-out: Activity
# [31] = system: MCF7; test: Growth inhibition of human MCF7 cells assessed as cell growth at 100 uM incubated for 48 hrs by sulforhodamine B assay relative to control; format: functional; details: MCF7, 48 h, read-out: Activity
# [32] = system: T47D; test: Growth inhibition of human T47D cells assessed as cell growth at 100 uM incubated for 48 hrs by sulforhodamine B assay relative to control; format: functional; details: read-out: Activity
# [33] = read-out: LC50 (the source's name)
# [34] = read-out: pLC50 (the source's name) (converted)
compound,measurement,setting,value
c1ccc2[nH]c(-c3ccc(-c4nccc5c4[nH]c4ccccc45)cc3)nc2c1,Activity,[1],Active
same,GI50,[2]; read-out: GI50,2210 nM
same,CC50,[2]; [33],> 1 µM
same,TGI,[2]; read-out: TGI,6.36 µM
same,GI50,[2]; read-out: pGI50 (converted),2190 nM
same,CC50,[2]; [34],> 100 µM
same,TGI,[2]; read-out: pTGI (converted),6.31 µM
same,GI50,[3]; read-out: GI50,3.96 µM
same,LC50,[3]; read-out: LC50,5.31 µM
same,GI50,[3]; read-out: pGI50 (converted),3.98 µM
same,LC50,[3]; read-out: pLC50 (converted),53.7 µM
same,TGI,[3],15.8 µM
same,GI50,[4]; read-out: GI50,1990 nM
same,CC50,[4]; [33],9.45 µM
same,TGI,[4]; read-out: TGI,4.34 µM
same,GI50,[4]; read-out: pGI50 (converted),2000 nM
same,CC50,[4]; [34],9.55 µM
same,TGI,[4]; read-out: pTGI (converted),4.37 µM
same,GI50,[5]; read-out: GI50,8.59 µM
same,CC50,[5]; [33],6.68 µM
same,GI50,[5]; read-out: pGI50 (converted),8.51 µM
same,CC50,[5]; [34],66.1 µM
same,TGI,[5]; read-out: pTGI (converted),25100 nM
same,growth at 0.01 µM,[6],97%
same,growth at 0.01 µM,[7],93%
same,growth at 0.01 µM,[8],94%
same,growth at 0.01 µM,[9],99%
same,growth at 0.01 µM,[10],91%
same,growth at 0.1 µM,[11],89%
same,growth at 0.1 µM,[12],101%
same,growth at 0.1 µM,[13],110%
same,growth at 0.1 µM,[14],97%
same,growth at 0.1 µM,[15],91%
same,growth at 0.1 µM,[16],98%
same,growth at 0.1 µM,[17],96%
same,growth at 0.1 µM,[18],108%
same,growth at 0.1 µM,[19],96%
same,growth at 1 µM,[20],93%
same,growth at 1 µM,[21],90%
same,growth at 1 µM,[22],98%
same,growth at 1 µM,[23],91%
same,growth at 1 µM,[24],82%
same,growth at 100 µM,[25],50%
same,growth at 100 µM,[26],64%
same,growth at 100 µM,[27],52%
same,growth at 100 µM,[28],75%
same,growth at 100 µM,[29],49%
same,growth at 100 µM,[30],81%
same,growth at 100 µM,[31],72%
same,growth at 100 µM,[32],53%
c1ccc2c3c([nH]c2c1)C(c1ccc(C2NCCc4c2[nH]c2ccccc42)cc1)NCC3 (racemic),Activity,[1],Active
same,GI50,[2]; read-out: GI50,2470 nM
same,CC50,[2]; [33],4.51 µM
same,TGI,[2]; read-out: TGI,5.56 µM
same,GI50,[2]; read-out: pGI50 (converted),245 nM
same,CC50,[2]; [34],4.47 µM
same,TGI,[2]; read-out: pTGI (converted),0.55 µM
same,GI50,[3]; read-out: pGI50 (converted),0.275 µM
same,TGI,[3],1.29 µM
same,GI50,[4]; read-out: GI50,1700 nM
same,CC50,[4]; [33],7.47 µM
same,TGI,[4]; read-out: TGI,3.57 µM
same,GI50,[4]; read-out: pGI50 (converted),1700 nM
same,CC50,[4]; [34],7.41 µM
same,TGI,[4]; read-out: pTGI (converted),3.55 µM
same,GI50,[5]; read-out: GI50,1.27 µM
same,CC50,[5]; [33],5.69 µM
same,TGI,[5]; read-out: TGI,2690 nM
same,GI50,[5]; read-out: pGI50 (converted),1.26 µM
same,CC50,[5]; [34],5.75 µM
same,TGI,[5]; read-out: pTGI (converted),2690 nM
same,growth at 0.01 µM,[6],108%
same,growth at 0.01 µM,[7],92%
same,growth at 0.01 µM,[8],99%
same,growth at 0.01 µM,[9],99%
same,growth at 0.01 µM,[10],88%
same,growth at 0.1 µM,[11],85%
same,growth at 0.1 µM,[12],91%
same,growth at 0.1 µM,[13],106%
same,growth at 0.1 µM,[14],92%
same,growth at 0.1 µM,[15],99%
same,growth at 0.1 µM,[16],93%
same,growth at 0.1 µM,[17],93%
same,growth at 0.1 µM,[18],101%
same,growth at 0.1 µM,[19],100%
same,growth at 1 µM,[20],48%
same,growth at 1 µM,[21],81%
same,growth at 1 µM,[22],4%
same,growth at 1 µM,[23],78%
same,growth at 1 µM,[24],66%
same,growth at 100 µM,[25],60%
same,growth at 100 µM,[26],90%
same,growth at 100 µM,[27],83%
same,growth at 100 µM,[28],92%
same,growth at 100 µM,[29],84%
same,growth at 100 µM,[30],94%
same,growth at 100 µM,[31],-74%
same,growth at 100 µM,[32],-72%
